Source: the supplement of paper PMC4862054

Columns and labels:
[1] = tested on: CAL-51; settings: 72 h
Description: (§1)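 Drug sensitivity and resistance testing (DSRT) of breast cancer cell lines in 384-well plates, 5 concentrations in 10-fold dilutions over a compound-specific 10,000-fold range. After 72 h, cytotoxicity was read by CellTox Green fluorescence and viability by CellTiter-Glo luminescence (multiplexed), normalised to DMSO and benzethonium chloride controls. EC50 is the inflection point of the fitted dose-response curve (bottom asymptote free, so it can be relative for partial curves) and is censored at the highest tested concentration. Rows with DSS 0 (no meaningful response) were excluded.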

[2] = tested on: CAL-148; settings: 72 h
Description: as §1

[3] = tested on: MDA-MB-468; settings: 72 h
Description: as §1

[4] = tested on: CAL-85-1; settings: 72 h
Description: as §1

[5] = tested on: HCC1599; settings: 72 h
Procedure, shortened: (§2)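 A 20 µl suspension of breast cancer cells was placed in 384-well plates that already contained compound at 5 concentrations in 10-fold steps across a compound-specific 10,000-fold range, and the plates were left for 72 h. CellTox Green fluorescence at 485/520 nm gave cell death, and CellTiter-Glo luminescence, read after 10 min at room temperature, gave viability. Each plate was normalised to 0.1 % DMSO and a positive kill control. EC50 was fitted from the curves and censored at the top concentration.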

[6] = tested on: SK-BR-3; settings: 72 h
Procedure, shortened: as §2

[7] = tested on: CAL-51; settings: 72 h; remark: listed apart in the source
Procedure, shortened: as §2

[8] = tested on: CAL-120; settings: 72 h
Procedure, shortened: as §2

[9] = tested on: DU-4475; settings: 72 h
Procedure, shortened: as §2

[10] = tested on: MDA-MB-436; settings: 72 h
Procedure, shortened: as §2

[11] = tested on: MCF-10A; settings: 72 h
Procedure, shortened: as §2

[12] = tested on: CAL-148; settings: 72 h; remark: listed apart in the source
Procedure, shortened: as §2

[13] = tested on: MDA-MB-468; settings: 72 h; remark: listed apart in the source
Procedure, shortened: as §2

[14] = tested on: HCC1143; settings: 72 h
Procedure, shortened: as §2

[15] = tested on: CAL-85-1; settings: 72 h; remark: listed apart in the source
Procedure, shortened: as §2

[16] = tested on: MDA-MB-453; settings: 72 h
Procedure, shortened: as §2

[17] = tested on: Hs578T; settings: 72 h
Procedure, shortened: as §2

[18] = tested on: BT-474; settings: 72 h
Procedure, shortened: as §2

[19] = tested on: BT-549; settings: 72 h
Procedure, shortened: as §2

[20] = tested on: BT-474; settings: 72 h; remark: listed apart in the source
Description: as §1

[21] = tested on: CAL-51; experiment: normalised viability (% of control), CellTiter-Blue; higher = more viable cells (about 100 = DMSO control); settings: incubation time: 72 h
Procedure, shortened: (§3)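 Each value is normalised viability at a single listed concentration of the series. Breast cancer cell lines in 384-well plates were incubated 72 h with compound and read by CellTiter-Blue fluorescence at 560/590 nm, with vehicle set to 100 and a positive kill control to 0 on every plate.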

[22] = tested on: HDQ-P1; experiment: as above; settings: incubation time: 72 h
Procedure, shortened: as §3

[23] = tested on: CAL-85-1; experiment: as above; settings: incubation time: 72 h
Procedure, shortened: as §3

[24] = tested on: HDQ-P1; settings: 72 h
Procedure, shortened: (§4)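 Rows with a drug sensitivity score of zero were dropped, and EC50 was taken from the fitted percent-inhibition dose-response curve, censored at the highest concentration. Data were normalised on each plate to vehicle and a positive kill control and checked by Z'-factor. The assay seeded breast cancer cell lines in 20 µl onto 384-well plates pre-loaded with compound in 5 µl medium for 72 h, then added 2.5 µl CellTiter-Blue for 2 h at 37 °C and read fluorescence at 560/590 nm.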

[25] = tested on: BT-474; settings: 72 h; remark: listed apart in the source
Procedure, shortened: as §4

[26] = tested on: Hs578T; settings: 72 h; remark: listed apart in the source
Description: as §1

Structure (SMILES): Nc1ccn([C@@H]2O[C@H](CO)[C@@H](O)C2(F)F)c(=O)n1 [Gemcitabine]
- EC50, CellTox Green [1]: 7.56 nM
- EC50, CellTox Green [2]: 9.69 nM
- EC50, CellTox Green [3]: 5.64 nM
- EC50, CellTox Green [4]: 99.7 nM
- EC50, CellTiter-Glo [5]: 18.4 nM
- EC50, CellTiter-Glo [6]: 12.8 nM
- EC50, CellTiter-Glo [7]: 12.5 nM
- EC50, CellTiter-Glo [8]: 87.3 nM
- EC50, CellTiter-Glo [9]: 20.7 nM
- EC50, CellTiter-Glo [10]: 9.55 nM
- EC50, CellTiter-Glo [11]: 39.9 nM
- EC50, CellTiter-Glo [12]: 12.8 nM
- EC50, CellTiter-Glo [13]: 6.86 nM
- EC50, CellTiter-Glo [14]: 9.33 nM
- EC50, CellTiter-Glo [15]: 18.5 nM
- EC50, CellTiter-Glo [16]: 47.6 nM
- EC50, CellTiter-Glo [17]: 26.9 nM
- EC50, CellTiter-Glo [18]: 32.1 nM
- EC50, CellTiter-Glo [19]: 5.01 nM

Structure (SMILES): CC(O)(CS(=O)(=O)c1ccc(F)cc1)C(=O)Nc1ccc(C#N)c(C(F)(F)F)c1 (stereo not drawn) [Bicalutamide]
- EC50, CellTiter-Glo [16]: > 10000 nM

Structure (SMILES): CC(C)C[C@H](NC(=O)[C@@H](COC(C)(C)C)NC(=O)[C@H](Cc1ccc(O)cc1)NC(=O)[C@H](CO)NC(=O)[C@H](Cc1c[nH]c2ccccc12)NC(=O)[C@H](Cc1cnc[nH]1)NC(=O)[C@@H]1CCC(=O)N1)C(=O)N[C@@H](CCCNC(=N)N)C(=O)N1CCC[C@H]1C(=O)NNC(N)=O [Goserelin]
- EC50, CellTox Green [20]: > 10000 nM

Structure (SMILES): CC(C)(C)NC(=O)[C@H]1CC[C@H]2[C@@H]3CC[C@H]4NC(=O)C=C[C@]4(C)[C@H]3CC[C@]12C [Finasteride] (10000 nM)
- normalised viability [21]: 33.7%
- normalised viability [22]: 135%
- normalised viability [23]: 51.9%

Structure (SMILES): Cc1cc(Nc2nc(N[C@@H](C)c3ncc(F)cn3)ncc2Cl)[nH]n1 [AZD1480] (1000 nM)
- normalised viability [21]: 86.3%
- normalised viability [22]: 137%
- normalised viability [23]: 88.4%

Structure (SMILES): Cn1cc(C2=C(c3cn(C4CCN(Cc5ccccn5)CC4)c4ccccc34)C(=O)NC2=O)c2ccccc21 [Enzastaurin]
- EC50, CellTiter-Blue viability [24]: 1000 nM
- EC50, CellTiter-Blue viability [25]: 1670 nM

Structure (SMILES): CC(O)(CS(=O)(=O)c1ccc(F)cc1)C(=O)Nc1ccc(C#N)c(C(F)(F)F)c1 (stereo not drawn) [Bicalutamide] (10000 nM)
- normalised viability [21]: 112%
- normalised viability [22]: 128%
- normalised viability [23]: 102%

Structure (SMILES): C/C(=C\c1csc(C)n1)[C@@H]1C[C@@H]2O[C@]2(C)CCC[C@H](C)[C@H](O)[C@@H](C)C(=O)C(C)(C)[C@@H](O)CC(=O)N1 [Ixabepilone] (1000 nM)
- normalised viability [21]: 57.9%
- normalised viability [22]: 37%
- normalised viability [23]: 36.9%

Structure (SMILES): Cc1cn(-c2cc(NC(=O)c3ccc(C)c(Nc4nccc(-c5cccnc5)n4)c3)cc(C(F)(F)F)c2)cn1 [Nilotinib]
- EC50, CellTox Green [26]: > 10000 nM
- EC50, CellTiter-Glo [7]: 32.6 nM
- EC50, CellTiter-Glo [19]: > 10000 nM
